Structures are written as SMILES. “And” between values parts separate entries of the source, which are not always exact repeats. Equal entries are not always repeated.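 Cells were grown in 96-well plates and exposed to each compound for 48 hours at five concentrations; endpoints were interpolated linearly between bracketing concentrations, or set to the highest concentration if not reached. GI50 marks 50% less growth. TGI is the concentration that stops growth completely.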

Among the test systems are MCF7 breast; HT29 colon; SF-295 CNS; SK-MEL-2 melanoma; MDA-MB-231 breast; MALME-3M melanoma; DU-145 prostate; OVCAR-5 ovarian.
Holding throughout (test): NCI-60 cell line screen, 48 h

On to `CCCCCCCCCCCCOC1C(C(COC2OC(C(O)CN3CCCCC3)C3OC(C)(C)OC23)NC(=O)Nc2ccccc2)OC2OC(C)(C)OC21` (stereo not given), for which the GI50 is 3.16 µM in the test with MCF7 breast; 2 µM with HT29 colon; 15.3 µM with SF-295 CNS; 19.6 µM in the test with SK-MEL-2 melanoma; 12.8 µM in the test with MDA-MB-231 breast; 10.1 µM in the test with MALME-3M melanoma. For the same compound, the GI50 is 11.9 µM in the test on DU-145 prostate and 18.5 µM in the test on OVCAR-5 ovarian. The TGI was 10.6 µM in the test on MCF7 breast; 4.73 µM in the test with HT29 colon; 31.7 µM with SF-295 CNS; 41.6 µM with SK-MEL-2 melanoma; 27.4 µM in the test with MDA-MB-231 breast; 22.2 µM in the test with MALME-3M melanoma. Besides, the TGI in the test with DU-145 prostate stood at 25.7 µM; in the test on OVCAR-5 ovarian, 34.3 µM.

As for `CC1CCC2C(C)C3C(CC4C5CC=C6CC(OC7OC(CO)C(O)C(OC8OC(CO)C(O)C(O)C8O)C7OC7OC(C)C(O)C(O)C7O)CCC6(C)C5CCC43C)N2C1` (stereo not given), the GI50 in the test on MCF7 breast, in the test on HT29 colon, in the test on SF-295 CNS, in the test on SK-MEL-2 melanoma, with MDA-MB-231 breast and in the test with MALME-3M melanoma was above 2.5 µg/mL throughout. In addition, the GI50 with DU-145 prostate and with OVCAR-5 ovarian was above 2.5 µg/mL throughout. Further, the TGI in the test with MCF7 breast was 29.1 µM and > 2.5 µg/mL; in the test with HT29 colon it was 25.6 µM and > 2.5 µg/mL; in the test with SF-295 CNS, 22.7 µM and > 2.5 µg/mL; in the test with SK-MEL-2 melanoma, 34.8 µM and > 2.5 µg/mL; with MDA-MB-231 breast, 27.8 µM and > 2.5 µg/mL; in the test with MALME-3M melanoma it was 65.3 µM and > 2.5 µg/mL. The TGI is 38.7 µM and > 2.5 µg/mL in the test on DU-145 prostate; 28 µM and > 2.5 µg/mL in the test with OVCAR-5 ovarian.

Turning to `CC12CCc3ccccc3C1=Nc1ccccc12` (stereo not given), the TGI with MCF7 breast, in the test on HT29 colon, in the test on SF-295 CNS, with SK-MEL-2 melanoma, in the test on MDA-MB-231 breast and with MALME-3M melanoma was above 100 µM throughout. Besides, the TGI in the test with DU-145 prostate and in the test on OVCAR-5 ovarian was above 100 µM each time.

As to `O=C(O)C(Br)C(Br)c1ccccc1[N+](=O)[O-]` (stereo not given), the TGI in the test on MCF7 breast, in the test on HT29 colon, in the test with SF-295 CNS, with SK-MEL-2 melanoma, with MDA-MB-231 breast and in the test on MALME-3M melanoma was above 100 µM throughout. In addition, the TGI in the test with DU-145 prostate and in the test with OVCAR-5 ovarian was above 100 µM in each case.

Turning to `O=C(NCCN1CCOCC1)Nc1ccc(-c2cc3c(Nc4ccc(Oc5cccc(C(F)(F)F)c5)c(Cl)c4)ncnc3s2)cc1`, the GI50 in the test with MCF7 breast is 1.11 µM; in the test with HT29 colon, 0.896 µM; in the test on SF-295 CNS, 0.936 µM; in the test with SK-MEL-2 melanoma it was 1.25 µM; in the test with MDA-MB-231 breast it was 1.07 µM; with MALME-3M melanoma, 0.832 µM. Also, the GI50 was 2.93 µM with DU-145 prostate and 1.66 µM with OVCAR-5 ovarian. In addition, the TGI in the test on MCF7 breast came out at 3.27 µM; in the test with HT29 colon, 1.69 µM; in the test on SF-295 CNS it was 2 µM; in the test with SK-MEL-2 melanoma, 2.98 µM; in the test on MDA-MB-231 breast, 2.54 µM; with MALME-3M melanoma it was 1.57 µM. Besides, the TGI in the test on DU-145 prostate worked out at 9.26 µM; in the test with OVCAR-5 ovarian, 6.32 µM.

In the case of `Oc1ccc(Br)cc1/C=N/NC(=S)NC12CC3CC(CC(C3)C1)C2`, the GI50 with MCF7 breast was 1.86 µM; in the test on HT29 colon it was 2.02 µM; in the test on SF-295 CNS, 2.6 µM; in the test with SK-MEL-2 melanoma it was 2.09 µM; in the test on MDA-MB-231 breast, 1.95 µM; with MALME-3M melanoma, 2.23 µM. Besides, the results for the GI50 in the test on DU-145 prostate and with OVCAR-5 ovarian were 2.25 µM and 1.89 µM, respectively. Also, the TGI with MCF7 breast was 5.92 µM; in the test on HT29 colon, 3.93 µM; in the test on SF-295 CNS, 7.89 µM; with SK-MEL-2 melanoma it was 4.59 µM; with MDA-MB-231 breast it was 5.54 µM; in the test on MALME-3M melanoma it was 6.26 µM. Further, the TGI in the test with DU-145 prostate amounted to 6.73 µM; in the test on OVCAR-5 ovarian, 4.78 µM.

Regarding `COc1ccc2c(c1OC)-c1c(c3ccc([N+](=O)[O-])cc3c(=O)n1CCCN=[N+]=[N-])C2=O`, the GI50 in the test with MCF7 breast was 11.2 µM; with HT29 colon it was 31.7 µM; in the test with SF-295 CNS it was 3.11 µM; in the test on SK-MEL-2 melanoma, above 100 µM; in the test on MDA-MB-231 breast, above 100 µM; with MALME-3M melanoma, above 100 µM. Further, the GI50 with DU-145 prostate is 4.88 µM; in the test with OVCAR-5 ovarian, above 100 µM. Moreover, the TGI is above 100 µM in the test on MCF7 breast; above 100 µM with HT29 colon; 28.4 µM with SF-295 CNS; above 100 µM with SK-MEL-2 melanoma; above 100 µM in the test with MDA-MB-231 breast; above 100 µM with MALME-3M melanoma. Further, the TGI in the test on DU-145 prostate and in the test with OVCAR-5 ovarian was above 100 µM in each case.

Turning to `COc1ccc2[nH]c(-c3cccc(N(C)C)c3)cc(=O)c2c1`, the TGI with MCF7 breast was above 100 µM; with HT29 colon, 1.46 µM and 3.21 µM; with MDA-MB-231 breast, above 100 µM; with MALME-3M melanoma, above 100 µM; in the test with OVCAR-5 ovarian, above 100 µM. Moreover, the GI50 was 0.345 µM with HT29 colon; 3.71 µM in the test on SF-295 CNS; 0.786 µM with SK-MEL-2 melanoma; 2.1 µM with MDA-MB-231 breast; 0.589 µM with DU-145 prostate; 0.784 µM in the test on OVCAR-5 ovarian.

As for `CCCCSCc1nc2nc(Cl)c(Cl)nc2[nH]1`, the TGI is 68 µM with MCF7 breast; above 100 µM in the test on HT29 colon; 45.6 µM in the test with SF-295 CNS; 43.3 µM in the test with SK-MEL-2 melanoma; 79.2 µM in the test on MDA-MB-231 breast; 53.6 µM in the test on MALME-3M melanoma. Besides, the TGI with DU-145 prostate and in the test with OVCAR-5 ovarian was above 100 µM throughout.

For the compound `CCOC(=O)N1C/C(=C/c2ccc(OC)cc2)C(=O)/C(=C/c2ccc(OC)cc2)C1`, the GI50 in the test with MCF7 breast was 0.363 µM; in the test with HT29 colon, 0.79 µM; with SF-295 CNS, 2.17 µM; in the test on SK-MEL-2 melanoma it was 13.5 µM; in the test on MDA-MB-231 breast it was 2.38 µM; in the test on MALME-3M melanoma, 4.76 µM. For the same compound, the GI50 is 4.18 µM with DU-145 prostate and 4.23 µM in the test on OVCAR-5 ovarian. Moreover, the TGI with MCF7 breast was 3.2 µM; with HT29 colon it was 2.53 µM; in the test on SF-295 CNS, 5.81 µM; in the test on SK-MEL-2 melanoma, above 56.3 µM; in the test with MDA-MB-231 breast, 6.48 µM; with MALME-3M melanoma, above 33.9 µM. The TGI in the test with DU-145 prostate was above 100 µM; in the test on OVCAR-5 ovarian it was 21.6 µM.

For `C[C@@]1(c2ncncc2F)NC(=O)c2cc(-c3cn[nH]c3)ccc21`, the GI50 with MCF7 breast is 21 µM; in the test with HT29 colon it was 7.46 µM; in the test on SF-295 CNS, 29.4 µM; in the test with SK-MEL-2 melanoma, 23.8 µM; in the test on MDA-MB-231 breast, 27.6 µM; in the test on MALME-3M melanoma it was 12.9 µM. The GI50 was 28.8 µM in the test on DU-145 prostate and 22.4 µM in the test with OVCAR-5 ovarian. Further, the TGI in the test with MCF7 breast was above 100 µM; in the test on HT29 colon, 90.9 µM; in the test with SF-295 CNS, above 100 µM; in the test with SK-MEL-2 melanoma it was 68.2 µM; with MDA-MB-231 breast, 89.5 µM; with MALME-3M melanoma, 68.4 µM. Also, the TGI with DU-145 prostate is above 100 µM; with OVCAR-5 ovarian, 99 µM.

On to `CCCCCC(=O)OCC(=O)O[C@@H]1C[C@]2(C(C)C)O[C@@]1(C)[C@@H]1CC[C@@H](C)[C@H]1[C@@H]2OC(=O)/C=C/c1ccccc1`, for which the GI50 with MCF7 breast is above 32.9 µM; in the test with HT29 colon, above 37.4 µM; with SF-295 CNS, above 68.2 µM; with SK-MEL-2 melanoma, above 58.2 µM; in the test with MDA-MB-231 breast, above 57.5 µM; with MALME-3M melanoma, above 35.4 µM. The GI50 in the test on DU-145 prostate is above 48.4 µM; in the test with OVCAR-5 ovarian, above 81.7 µM. The TGI in the test on MCF7 breast is above 100 µM; in the test on HT29 colon, above 79.1 µM; in the test with SF-295 CNS it was above 100 µM; with SK-MEL-2 melanoma it was above 81 µM; in the test with MDA-MB-231 breast it was above 80.5 µM; in the test on MALME-3M melanoma, above 57 µM. Moreover, the results for the TGI in the test with DU-145 prostate and in the test with OVCAR-5 ovarian were above 72.4 µM and above 100 µM, respectively.

For `O=C(c1ccco1)c1c(C(F)(F)F)nc2cc(C(F)(F)F)ccc2[n+]1[O-]`, the GI50 was 35.3 µM in the test on MCF7 breast; above 100 µM in the test on HT29 colon; 17.5 µM in the test with SF-295 CNS; 69.3 µM with SK-MEL-2 melanoma; 18.9 µM with MDA-MB-231 breast; 54.2 µM in the test on MALME-3M melanoma. Moreover, the GI50 is 45.1 µM with DU-145 prostate and 67.8 µM in the test with OVCAR-5 ovarian. For the same compound, the TGI is above 100 µM in the test with MCF7 breast; above 100 µM with HT29 colon; 40.4 µM with SF-295 CNS; above 100 µM in the test with SK-MEL-2 melanoma; 40.9 µM in the test on MDA-MB-231 breast; above 100 µM in the test with MALME-3M melanoma. Besides, the TGI with DU-145 prostate and with OVCAR-5 ovarian was above 100 µM in each case.

For the compound `O=C(Nc1cccc2cccnc12)c1ccc(N2C(=O)[C@@H]3[C@H](C2=O)[C@@H]2C=C[C@H]3C2)cc1`, the GI50 is 25.1 µM in the test on MCF7 breast; 18 µM in the test with HT29 colon; 24.9 µM in the test with SF-295 CNS; 27 µM with SK-MEL-2 melanoma; 33.2 µM with MDA-MB-231 breast; 21.5 µM in the test with MALME-3M melanoma. The values for the GI50 in the test with DU-145 prostate and in the test with OVCAR-5 ovarian were 29.9 µM and 55.9 µM, respectively. The TGI with MCF7 breast is above 100 µM; with HT29 colon, 62.4 µM; in the test with SF-295 CNS, above 86.9 µM; with SK-MEL-2 melanoma, 80.1 µM; in the test with MDA-MB-231 breast, above 100 µM; in the test with MALME-3M melanoma, above 100 µM. Further, the TGI with DU-145 prostate and with OVCAR-5 ovarian was above 100 µM each time.

These data come from PubChem BioAssay (NCI).
